Results: US20110118337A1, “Method of Using Compositions Comprising MIR-192 and/or MIR-215 for the Treatment of Cancer” (Merck Sharp & Dohme Corp., priority 2008, published 2011)

System: HCT116 DICER^ex5 cells
Assay: Gene expression profiling (Agilent 44K microarray) after transfection of miR-192/miR-215 duplex mimetics
Assay type: cell-based, human
Details: 10 nM, vs mock-transfected
Protocol: Synthetic duplex mimetics of miR-192 and miR-215 (sequences shown in TABLE 1) or a control target Luciferase siRNA (Luc), shown in TABLE 1, were transfected (10 nM final concentration) into HCT116 DICER^ex5, a human colorectal cancer cell line with hypomorphic DICER function (Cummins, J. M., et al., PNAS 103:3687-3692 (2006)). The transfections were carried out using Lipofectamine RNAiMax (Invitrogen) per the manufacturer's instructions. At 10 and 24 hours post-transfection, total RNA was extracted and gene expression profiling was carried out with the Agilent 44K microarray in comparison to RNA isolated from mock-transfected HCT116DICER^ex5 cells. Microarray analysis was carried out as described in Linsley, P. S., et al., Mol Cell Biol 27:2240-2252 (2007). Gene expression data analysis was done either with the Rosetta Resolver gene expression analysis software (Version 7.1 Rosetta Biosoftware).

Substance: miR-215: Synthetic duplex mimetic of miR-215, guide AUGACCUAUGAAUUGACAGAC (SEQ ID NO:4), passenger SEQ ID NO:10 (sense CUGUCAAUUCAUAGGUCUUAU; listed as RNA, chemistry not given here; listed as Homo sapiens)
- BCL2 transcript fold change (10 hr): −1.09 fold change
- BRCA1 transcript fold change (10 hr): −1.04 fold change
- CDC7 transcript fold change (10 hr): −1.54 fold change
- CDC14A transcript fold change (10 hr): −1.05 fold change
- CDC73 transcript fold change (10 hr): −1.04 fold change
- CRK transcript fold change (10 hr): −1.43 fold change
- CTCF transcript fold change (10 hr): −1.53 fold change
- CUL5 transcript fold change (10 hr): −1.25 fold change
- DBF4B transcript fold change (10 hr): −1.07 fold change
- DEK transcript fold change (10 hr): −1.19 fold change
- DLG5 transcript fold change (10 hr): −1.89 fold change
- DTL transcript fold change (10 hr): −1.19 fold change
- EMP1 transcript fold change (10 hr): 1.11 fold change
- ERCC3 transcript fold change (10 hr): −1.25 fold change
- EXTL2 transcript fold change (10 hr): −1.32 fold change
- FGF2 transcript fold change (10 hr): −1.67 fold change
- HOXA10 transcript fold change (10 hr): −1.74 fold change
- HRH1 transcript fold change (10 hr): −1.52 fold change
- KIF14 transcript fold change (10 hr): 1.01 fold change
- KIF23 transcript fold change (10 hr): 1.01 fold change
- LMNB2 transcript fold change (10 hr): −1.55 fold change
- MACF1 transcript fold change (10 hr): −1.17 fold change
- MAD2L transcript fold change (10 hr): −1.31 fold change
- MCM3 transcript fold change (10 hr): −1.56 fold change
- MCM6 transcript fold change (10 hr): −1.04 fold change
- MCM10 transcript fold change (10 hr): −1.97 fold change
- MIS12 transcript fold change (10 hr): −1.28 fold change
- MKI67 transcript fold change (10 hr): −1.04 fold change
- MPHOSPH1 transcript fold change (10 hr): −1.46 fold change
- MTSS1 transcript fold change (10 hr): −1.07 fold change
- NBN transcript fold change (10 hr): −1.39 fold change
- NCAPH transcript fold change (10 hr): −1.02 fold change
- NEK1 transcript fold change (10 hr): −1.16 fold change
- NFIB transcript fold change (10 hr): −1.38 fold change
- NFYA transcript fold change (10 hr): −1.25 fold change
- NIN transcript fold change (10 hr): −1.12 fold change
- PAFAH1B1 transcript fold change (10 hr): −1.31 fold change
- PAPD5 transcript fold change (10 hr): −1.31 fold change
- PFTK1 transcript fold change (10 hr): 1.05 fold change
- PIM1 transcript fold change (10 hr): −1.13 fold change
- PLAU transcript fold change (10 hr): −1.77 fold change
- PLS3 transcript fold change (10 hr): −1.56 fold change
- POLQ transcript fold change (10 hr): −1.1 fold change
- POLS transcript fold change (10 hr): −1.17 fold change
- PPP1CA transcript fold change (10 hr): −1.76 fold change
- PRPF38A transcript fold change (10 hr): −1.09 fold change
- RACGAP1 transcript fold change (10 hr): −1.31 fold change
- RAD1 transcript fold change (10 hr): −1.12 fold change
- RAD21 transcript fold change (10 hr): −1.32 fold change
- RAD51 transcript fold change (10 hr): 1.05 fold change
- RAP1GAP transcript fold change (10 hr): −1.21 fold change
- RB1 transcript fold change (10 hr): −1.25 fold change
- SEPT10 transcript fold change (10 hr): −1.6 fold change
- SERTAD2 transcript fold change (10 hr): −1.09 fold change
- SH3BP4 transcript fold change (10 hr): −1.38 fold change
- SMARCB1 transcript fold change (10 hr): −1.42 fold change
- TDG transcript fold change (10 hr): −1.54 fold change
- TDP1 transcript fold change (10 hr): −1.5 fold change
- TOP1 transcript fold change (10 hr): −1.64 fold change
- TUBGCP3 transcript fold change (10 hr): −1.41 fold change
- USP1 transcript fold change (10 hr): −1.16 fold change
- UVRAG transcript fold change (10 hr): −1.17 fold change
- BCL2 transcript fold change (24 hr): −1.59 fold change
- BRCA1 transcript fold change (24 hr): −1.43 fold change
- CDC7 transcript fold change (24 hr): −2.04 fold change
- CDC14A transcript fold change (24 hr): −1.2 fold change
- CDC73 transcript fold change (24 hr): −1.1 fold change
- CRK transcript fold change (24 hr): −1.52 fold change
- CTCF transcript fold change (24 hr): −1.66 fold change
- CUL5 transcript fold change (24 hr): −1.37 fold change
- DBF4B transcript fold change (24 hr): −1.33 fold change
- DEK transcript fold change (24 hr): −1.42 fold change
- DLG5 transcript fold change (24 hr): −2.03 fold change
- DTL transcript fold change (24 hr): −1.46 fold change
- EMP1 transcript fold change (24 hr): 1.04 fold change
- ERCC3 transcript fold change (24 hr): −1.36 fold change
- EXTL2 transcript fold change (24 hr): −1.59 fold change
- FGF2 transcript fold change (24 hr): −2.12 fold change
- HOXA10 transcript fold change (24 hr): −2.57 fold change
- HRH1 transcript fold change (24 hr): −1.63 fold change
- KIF14 transcript fold change (24 hr): −1.53 fold change
- KIF23 transcript fold change (24 hr): −1.36 fold change
- LMNB2 transcript fold change (24 hr): −1.92 fold change
- MACF1 transcript fold change (24 hr): −1.55 fold change
- MAD2L transcript fold change (24 hr): −1.84 fold change
- MCM3 transcript fold change (24 hr): −1.96 fold change
- MCM6 transcript fold change (24 hr): −1.4 fold change
- MCM10 transcript fold change (24 hr): −2.67 fold change
- MIS12 transcript fold change (24 hr): −1.77 fold change
- MKI67 transcript fold change (24 hr): −1.52 fold change
- MPHOSPH1 transcript fold change (24 hr): −1.94 fold change
- MTSS1 transcript fold change (24 hr): −1.29 fold change
- NBN transcript fold change (24 hr): −1.41 fold change
- NCAPH transcript fold change (24 hr): −1.32 fold change
- NEK1 transcript fold change (24 hr): −1.35 fold change
- NFIB transcript fold change (24 hr): −1.91 fold change
- NFYA transcript fold change (24 hr): −1.18 fold change
- NIN transcript fold change (24 hr): −1.42 fold change
- PAFAH1B1 transcript fold change (24 hr): −1.6 fold change
- PAPD5 transcript fold change (24 hr): −1.22 fold change
- PFTK1 transcript fold change (24 hr): −1.28 fold change
- PIM1 transcript fold change (24 hr): −1.65 fold change
- PLAU transcript fold change (24 hr): −1.91 fold change
- PLS3 transcript fold change (24 hr): −1.84 fold change
- POLQ transcript fold change (24 hr): −1.23 fold change
- POLS transcript fold change (24 hr): −1.38 fold change
- PPP1CA transcript fold change (24 hr): −2.42 fold change
- PRPF38A transcript fold change (24 hr): −1.17 fold change
- RACGAP1 transcript fold change (24 hr): −1.84 fold change
- RAD1 transcript fold change (24 hr): −1.38 fold change
- RAD21 transcript fold change (24 hr): −1.52 fold change
- RAD51 transcript fold change (24 hr): −1.35 fold change
- RAP1GAP transcript fold change (24 hr): −1.35 fold change
- RB1 transcript fold change (24 hr): −1.39 fold change
- SEPT10 transcript fold change (24 hr): −1.95 fold change
- SERTAD2 transcript fold change (24 hr): −1.1 fold change
- SH3BP4 transcript fold change (24 hr): −1.67 fold change
- SMARCB1 transcript fold change (24 hr): −1.42 fold change
- TDG transcript fold change (24 hr): −1.55 fold change
- TDP1 transcript fold change (24 hr): −1.8 fold change
- TOP1 transcript fold change (24 hr): −1.76 fold change
- TUBGCP3 transcript fold change (24 hr): −1.73 fold change
- USP1 transcript fold change (24 hr): −1.38 fold change
- UVRAG transcript fold change (24 hr): −1.43 fold change
